Drawing on the NIST ThermoML archive (doi:10.1016/j.jct.2007.05.001), this text covers refractive index for two compounds.

The data set can be described thus: refractive index (Na D-line) (dimensionless). The following applies: 293.1 K; 101.33 kPa; Liquid; Standard Abbe refractometry.

± gives the expanded uncertainty stated by the source.

In the case of `Cc1cccc(C)c1` [1,3-dimethylbenzene], the refractive index came to 1.4943 ± 0.0008.
To `O=CN1CCOCC1` [N-formylmorpholine] belongs 1.484 ± 0.0008.

For orientation: refractive index means the speed of light in vacuum divided by its phase velocity in the sample.
